Results taken from ChEMBL document CHEMBL3763146 (J Med Chem, 2016).

Columns and labels:
[1] = Oral bioavailability in rhesus monkey at 2 mg/kg; format: ADME, organism-based, Macaca mulatta; details: in vivo
[2] = target: Cytochrome P450 3A4 (Homo sapiens, UniProt P08684); assay: Time-dependent inhibition of CYP3A4 in human liver microsomes up to 50 uM; format: ADME
[3] = Stability in human plasma assessed as parent compound remaining at 24 hrs by LC-MS analysis; format: ADME, cell-free; details: read-out: Stability
[4] = target: Cytochrome P450 2C8 (Homo sapiens, UniProt P10632); assay: Inhibition of CYP2C8 in human liver microsomes; format: ADME
Chain of Cytochrome P450 2C8 (P10632 whole entry): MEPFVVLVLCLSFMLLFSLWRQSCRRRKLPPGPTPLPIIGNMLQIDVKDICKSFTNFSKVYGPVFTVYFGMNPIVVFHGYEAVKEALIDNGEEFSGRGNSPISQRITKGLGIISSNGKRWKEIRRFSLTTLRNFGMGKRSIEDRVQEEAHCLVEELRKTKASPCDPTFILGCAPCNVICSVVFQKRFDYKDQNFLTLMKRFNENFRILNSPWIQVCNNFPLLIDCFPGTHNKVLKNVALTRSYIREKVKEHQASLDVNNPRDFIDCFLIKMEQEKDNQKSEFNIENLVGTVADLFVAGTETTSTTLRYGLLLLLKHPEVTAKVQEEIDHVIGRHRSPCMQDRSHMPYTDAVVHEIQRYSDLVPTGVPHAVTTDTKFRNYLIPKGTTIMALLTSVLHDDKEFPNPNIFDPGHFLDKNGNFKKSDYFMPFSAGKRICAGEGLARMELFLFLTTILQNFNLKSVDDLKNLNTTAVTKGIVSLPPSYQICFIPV

[5] = target: T1, Beta-3 adrenergic receptor (Rattus norvegicus, UniProt P26255); assay: Agonist activity at rat beta3 adrenergic receptor expressed in CHO cells assessed as accumulation of cAMP after 30 mins by TR-FRET assay; format: functional, cell-based
T1 sequence (P26255 whole entry): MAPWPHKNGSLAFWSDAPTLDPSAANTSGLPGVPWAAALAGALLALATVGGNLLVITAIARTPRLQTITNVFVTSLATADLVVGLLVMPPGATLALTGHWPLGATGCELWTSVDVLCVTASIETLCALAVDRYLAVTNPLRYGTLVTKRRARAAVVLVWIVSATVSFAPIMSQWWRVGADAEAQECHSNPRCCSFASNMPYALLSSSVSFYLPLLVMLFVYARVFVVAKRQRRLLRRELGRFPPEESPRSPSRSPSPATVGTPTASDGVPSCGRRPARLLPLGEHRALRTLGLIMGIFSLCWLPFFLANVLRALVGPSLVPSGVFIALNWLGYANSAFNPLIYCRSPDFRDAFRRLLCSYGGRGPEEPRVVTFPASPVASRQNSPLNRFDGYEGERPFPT

[6] = test system: Rattus norvegicus; assay: Unbound clearance in rat at 1 mg/kg, iv or 2 mg/kg, po; format: ADME, organism-based; details: in vivo
[7] = target: Cytochrome P450 2C9 (Homo sapiens, UniProt P11712); assay: Inhibition of CYP2C9 in human liver microsomes assessed as diclofenac alpha'-hydroxylation; format: ADME
Chain of Cytochrome P450 2C9 (P11712 whole entry): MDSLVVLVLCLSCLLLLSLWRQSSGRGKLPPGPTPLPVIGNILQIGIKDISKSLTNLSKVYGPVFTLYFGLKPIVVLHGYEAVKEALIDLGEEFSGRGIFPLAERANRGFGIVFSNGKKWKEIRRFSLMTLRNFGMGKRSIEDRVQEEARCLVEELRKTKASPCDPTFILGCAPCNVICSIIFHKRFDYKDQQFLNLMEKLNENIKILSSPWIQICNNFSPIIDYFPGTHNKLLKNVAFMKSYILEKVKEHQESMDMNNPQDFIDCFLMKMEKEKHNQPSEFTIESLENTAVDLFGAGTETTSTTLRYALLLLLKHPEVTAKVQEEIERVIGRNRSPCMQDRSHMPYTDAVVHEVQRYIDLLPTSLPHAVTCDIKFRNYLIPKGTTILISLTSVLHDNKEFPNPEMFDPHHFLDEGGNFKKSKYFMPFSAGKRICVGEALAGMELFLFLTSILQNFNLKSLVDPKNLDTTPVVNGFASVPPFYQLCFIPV

[8] = Fraction unbound in dog at 0.5 mg/kg, iv or 2 mg/kg, po; format: ADME, organism-based, Canis lupus familiaris; details: in vivo
[9] = test system: Hepatocyte; assay: Increase in CYP3A4 mRNA expression in human hepatocytes up to 10 uM; format: ADME, cell-based
[10] = test system: MDR1 (human); assay: Apparent permeability of the compound in pig LLC-PK1 cells expressing human MDR1 at 5 uM measured at 3 hrs by LC/MS/MS analysis; format: ADME, cell-based, Sus scrofa
[11] = Intrinsic clearance in dog liver microsomes; format: ADME, Canis lupus familiaris; details: read-out: CLH
[12] = target: Beta-3 adrenergic receptor (Homo sapiens, UniProt P13945); assay: Agonist activity at human adrenergic beta3 receptor expressed in CHO cells assessed as accumulation of cAMP after 30 mins by TR-FRET assay in presence of 40% serum; format: functional, cell-based
Chain of Beta-3 adrenergic receptor (Homo sapiens, UniProt P13945) (P13945 whole entry): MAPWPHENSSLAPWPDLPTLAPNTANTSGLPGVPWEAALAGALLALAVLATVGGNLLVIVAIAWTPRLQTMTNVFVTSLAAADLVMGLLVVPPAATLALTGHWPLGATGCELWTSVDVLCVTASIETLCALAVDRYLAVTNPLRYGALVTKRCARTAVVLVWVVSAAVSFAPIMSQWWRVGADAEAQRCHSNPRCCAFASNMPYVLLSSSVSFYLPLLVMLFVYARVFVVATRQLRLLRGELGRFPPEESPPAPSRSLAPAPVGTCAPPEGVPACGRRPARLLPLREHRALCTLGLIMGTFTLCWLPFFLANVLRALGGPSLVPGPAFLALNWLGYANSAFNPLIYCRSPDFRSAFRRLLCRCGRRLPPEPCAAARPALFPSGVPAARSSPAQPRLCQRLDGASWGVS

[13] = target: Cytochrome P450 2B6 (Homo sapiens, UniProt P20813); assay: Inhibition of CYP2B6 in human liver microsomes; format: ADME
Chain of Cytochrome P450 2B6 (P20813 whole entry): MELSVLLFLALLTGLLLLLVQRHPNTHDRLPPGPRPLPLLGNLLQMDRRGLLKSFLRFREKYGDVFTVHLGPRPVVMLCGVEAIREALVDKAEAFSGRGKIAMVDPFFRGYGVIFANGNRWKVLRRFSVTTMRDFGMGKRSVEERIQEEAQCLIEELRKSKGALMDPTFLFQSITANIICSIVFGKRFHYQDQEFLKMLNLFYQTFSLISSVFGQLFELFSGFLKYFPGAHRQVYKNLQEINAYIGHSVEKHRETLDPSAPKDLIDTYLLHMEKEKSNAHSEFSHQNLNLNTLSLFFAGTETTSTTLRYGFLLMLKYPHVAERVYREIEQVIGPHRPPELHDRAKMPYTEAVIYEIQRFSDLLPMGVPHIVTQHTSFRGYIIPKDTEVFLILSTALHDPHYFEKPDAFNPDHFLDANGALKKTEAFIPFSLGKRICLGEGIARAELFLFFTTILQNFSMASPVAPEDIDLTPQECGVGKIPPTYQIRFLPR

[14] = Drug recovery in bile duct cannulated rat bile at 5 mg/kg, iv measured over 48 hrs; format: ADME, organism-based; details: read-out: Drug recovery
[15] = target: Beta-3 adrenergic receptor (Rattus norvegicus) (UniProt P26255); assay: Agonist activity at rat beta3 adrenergic receptor expressed in CHO cells assessed as accumulation of cAMP after 30 mins by TR-FRET assay relative to (R)-(-)-isoproterenol; format: functional, cell-based
Chain of Beta-3 adrenergic receptor (Rattus norvegicus) (P26255 whole entry): as the sequence (P26255 whole entry) above

[16] = Stability in dog plasma assessed as parent compound remaining at 24 hrs by LC-MS analysis; format: ADME, cell-free, Canis lupus familiaris; details: read-out: Stability
[17] = Plasma clearance in rat at 1 mg/kg, iv or 2 mg/kg, po; format: ADME, organism-based
[18] = test system: Cynomolgus monkey; assay: Toxicity in cynomolgus monkey assessed as effect on electrocadiograms measured up to 9 months; format: organism-based, Macaca fascicularis; details: in vivo
[19] = organism: Rattus norvegicus; assay: Toxicity in Sprague-Dawley rat assessed as antemortem parameters measured up to 6 months; format: organism-based; details: in vivo
[20] = Fraction unbound in rat at 1 mg/kg, iv or 2 mg/kg, po; format: ADME, organism-based; details: in vivo
[21] = Drug recovery in bile duct cannulated rat feces at 10 mg/kg, po measured over 48 hrs; format: ADME, organism-based; details: faeces, read-out: Drug recovery
[22] = test system: Rhesus monkey; assay: Dose normalized fAUC in rhesus monkey at 2 mg/kg, po; format: ADME, organism-based, Macaca mulatta; details: in vivo
[23] = target: Nuclear receptor subfamily 1 group I member 2 (Homo sapiens, UniProt O75469); assay: Activation of human PX receptor
Chain of Nuclear receptor subfamily 1 group I member 2 (O75469 whole entry): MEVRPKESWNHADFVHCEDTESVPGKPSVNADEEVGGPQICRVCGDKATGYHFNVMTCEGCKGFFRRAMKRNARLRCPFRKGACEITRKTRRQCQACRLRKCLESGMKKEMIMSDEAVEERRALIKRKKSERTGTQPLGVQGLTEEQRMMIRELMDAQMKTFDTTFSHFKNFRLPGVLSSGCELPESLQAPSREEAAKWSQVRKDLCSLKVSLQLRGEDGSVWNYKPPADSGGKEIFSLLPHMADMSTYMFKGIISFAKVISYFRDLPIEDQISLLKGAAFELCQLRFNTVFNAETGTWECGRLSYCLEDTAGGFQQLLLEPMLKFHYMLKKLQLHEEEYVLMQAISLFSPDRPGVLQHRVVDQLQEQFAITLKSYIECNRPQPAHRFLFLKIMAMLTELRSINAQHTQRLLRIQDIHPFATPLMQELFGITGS

[24] = target: T1, Beta-3 adrenergic receptor; assay: Agonist activity at rat beta3 adrenergic receptor expressed in CHO cells assessed as accumulation of cAMP after 30 mins by TR-FRET assay in presence of 40% serum; format: functional, cell-based
[25] = target: Beta-1 adrenergic receptor (Homo sapiens, UniProt P08588)
Description: Displacement of [125]I-cyanopindolol from recombinant human beta1 adrenergic receptor after 1 hr by scintillation counting method

[26] = target: Voltage-gated inwardly rectifying potassium channel KCNH2 (Homo sapiens, UniProt Q12809); assay: Binding affinity to human ERG channel
[27] = test system: Rattus norvegicus; assay: Dose normalized fAUC in rat at 2 mg/kg, po; format: ADME, organism-based; details: in vivo
[28] = test system: Rhesus monkey; assay: Dose normalized total AUC in rhesus monkey at 2 mg/kg, po; format: ADME, organism-based, Macaca mulatta; details: in vivo
[29] = target: Beta-3 adrenergic receptor (Macaca mulatta) (UniProt Q28524); assay: Agonist activity at rhesus monkey beta3 adrenergic receptor expressed in CHO cells assessed as accumulation of cAMP after 30 mins by TR-FRET assay relative to (R)-(-)-isoproterenol; format: functional, cell-based
Chain of Beta-3 adrenergic receptor (Macaca mulatta) (Q28524 whole entry): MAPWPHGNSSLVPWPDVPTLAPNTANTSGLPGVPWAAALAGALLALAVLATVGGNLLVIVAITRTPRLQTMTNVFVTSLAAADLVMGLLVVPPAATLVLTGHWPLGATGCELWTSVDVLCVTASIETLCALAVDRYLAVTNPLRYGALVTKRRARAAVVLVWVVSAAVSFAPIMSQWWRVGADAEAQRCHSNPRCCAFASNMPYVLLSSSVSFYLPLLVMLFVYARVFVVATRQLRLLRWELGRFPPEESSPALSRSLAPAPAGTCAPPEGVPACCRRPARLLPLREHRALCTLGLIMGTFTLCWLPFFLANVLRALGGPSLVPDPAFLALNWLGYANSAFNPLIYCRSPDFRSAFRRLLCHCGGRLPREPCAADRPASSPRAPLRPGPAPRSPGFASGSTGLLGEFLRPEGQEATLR

[30] = Drug recovery in bile duct cannulated rat at 5 mg/kg, iv measured over 48 hrs; format: ADME, organism-based; details: in vivo, read-out: Drug recovery
[31] = Solubility of the compound in buffer at pH <= […]; format: physicochemical
[32] = Solubility of the compound in fasted-simulated intestinal fluid; format: ADME; details: fasted-state simulated intestinal fluid
[33] = Drug recovery in bile duct cannulated rat at 10 mg/kg, po measured over 48 hrs; format: ADME, organism-based; details: in vivo, read-out: Drug recovery
[34] = Stability in rat plasma assessed as parent compound remaining at 24 hrs by LC-MS analysis; format: ADME, cell-free; details: read-out: Stability
[35] = Half life in rat at 1 mg/kg, iv or 2 mg/kg, po; format: ADME, organism-based; details: in vivo
[36] = target: Beta-2 adrenergic receptor (Homo sapiens, UniProt P07550)
Chain of Beta-2 adrenergic receptor (P07550 whole entry): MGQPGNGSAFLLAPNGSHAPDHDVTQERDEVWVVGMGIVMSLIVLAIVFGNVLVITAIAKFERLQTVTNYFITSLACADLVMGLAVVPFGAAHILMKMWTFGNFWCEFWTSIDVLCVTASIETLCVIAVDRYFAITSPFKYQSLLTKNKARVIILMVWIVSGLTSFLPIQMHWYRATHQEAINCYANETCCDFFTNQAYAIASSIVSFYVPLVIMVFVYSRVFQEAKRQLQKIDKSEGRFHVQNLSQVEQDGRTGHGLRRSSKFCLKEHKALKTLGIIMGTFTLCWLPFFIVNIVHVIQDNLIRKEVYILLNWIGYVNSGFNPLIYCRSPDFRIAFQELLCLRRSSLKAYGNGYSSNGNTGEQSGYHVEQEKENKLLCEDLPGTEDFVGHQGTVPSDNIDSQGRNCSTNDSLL
Description: Displacement of [125]I-cyanopindolol from human recombinant beta2 adrenergic receptor after 1 hr by scintillation counting method

[37] = Half life in dog at 0.5 mg/kg, iv or 2 mg/kg, po; format: ADME, organism-based, Canis lupus familiaris; details: in vivo
[38] = target: Sodium-dependent serotonin transporter (Homo sapiens, UniProt P31645); assay: Inhibition of human SERT expressed in HEK293 cells preincubated for 30 mins followed by fluorescent substrate addition measured after 30 mins by plate reader analysis; format: cell-based
Chain of Sodium-dependent serotonin transporter (P31645 whole entry): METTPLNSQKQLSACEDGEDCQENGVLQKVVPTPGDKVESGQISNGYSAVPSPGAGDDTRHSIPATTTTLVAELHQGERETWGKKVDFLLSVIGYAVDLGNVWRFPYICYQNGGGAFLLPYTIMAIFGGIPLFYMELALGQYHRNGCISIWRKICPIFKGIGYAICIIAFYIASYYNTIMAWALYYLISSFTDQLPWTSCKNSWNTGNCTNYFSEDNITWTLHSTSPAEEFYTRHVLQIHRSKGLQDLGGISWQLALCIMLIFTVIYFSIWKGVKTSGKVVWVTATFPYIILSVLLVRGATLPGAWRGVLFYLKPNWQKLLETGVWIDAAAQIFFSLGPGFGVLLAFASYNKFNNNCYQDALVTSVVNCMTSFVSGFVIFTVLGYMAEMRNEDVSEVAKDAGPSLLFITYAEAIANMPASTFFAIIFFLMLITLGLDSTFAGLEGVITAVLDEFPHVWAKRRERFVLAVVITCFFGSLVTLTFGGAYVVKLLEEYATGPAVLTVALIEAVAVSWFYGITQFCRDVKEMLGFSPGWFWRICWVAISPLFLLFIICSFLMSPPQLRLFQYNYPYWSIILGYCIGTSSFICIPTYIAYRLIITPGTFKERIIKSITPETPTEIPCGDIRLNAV

[39] = Drug recovery in bile duct cannulated rat bile at 10 mg/kg, po measured over 48 hrs; format: ADME, organism-based; details: read-out: Drug recovery

Chain of Cytochrome P450 3A4 (P08684 whole entry): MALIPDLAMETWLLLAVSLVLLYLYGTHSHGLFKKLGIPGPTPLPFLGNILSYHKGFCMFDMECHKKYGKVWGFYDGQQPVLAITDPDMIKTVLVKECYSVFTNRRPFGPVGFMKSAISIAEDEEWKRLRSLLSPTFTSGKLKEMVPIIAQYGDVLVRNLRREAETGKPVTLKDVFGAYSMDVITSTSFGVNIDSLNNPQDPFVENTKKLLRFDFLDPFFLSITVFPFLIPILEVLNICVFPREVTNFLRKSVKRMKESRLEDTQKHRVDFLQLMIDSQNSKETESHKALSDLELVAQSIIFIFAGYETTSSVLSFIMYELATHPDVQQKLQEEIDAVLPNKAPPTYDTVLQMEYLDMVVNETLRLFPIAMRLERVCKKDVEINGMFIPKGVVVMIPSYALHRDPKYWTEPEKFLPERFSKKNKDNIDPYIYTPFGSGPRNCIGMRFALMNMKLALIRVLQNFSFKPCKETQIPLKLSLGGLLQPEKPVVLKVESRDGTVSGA

With O=C(Nc1ccc(C[C@@H]2CC[C@H]([C@H](O)c3ccccc3)N2)cc1)[C@@H]1CCc2nccc(=O)n21 [VIBEGRON] the bioavailability [1] was 23%, the TDI [2] was “Not Active” and the remaining at 24 h [3] was 100%. The IC50 [4] was > 100 µM, the EC50 [5] was 0.086 µM and the CL free [6] was 67 mL/min/kg. The IC50 [7] was > 100 µM, the fraction unbound [8] was 0.41 and the Activity [9] was “Not Active”. For the same compound, the Papp at 3 h, 5 µM [10] was 2.4 ×10⁻⁶ cm/s, the CLint scaled [11] was 13 mL/min/kg and the EC50 [12] was 0.0016 µM. The IC50 [13] was > 100 µM, the dose excreted at 48 h [14] was 33% and the max activation [15] was 83%. For the same compound, the remaining at 24 h [16] was 100%, the clearance [17] was 14 mL/min/kg and the Activity [18] was “Non-toxic”. For the same compound, the Activity [19] was “Non-toxic”, the fraction unbound [20] was 0.21 and the dose excreted at 48 h [21] was 19%. For the same compound, the fAUC/dose [22] was 260 nM·h/mg/kg, the EC50 [23] was > 30 µM and the EC50 [24] was 0.122 µM. For the same compound, the IC50 [25] was > 20 µM, the IC50 [26] was > 30 µM and the fAUC/dose [27] was 113 nM·h/mg/kg. It also gave an AUC/dose [28] of 540 nM·h/mg/kg, a max activation [29] of 87% and a dose excreted at 48 h [30] of 83%. The solubility [31] was > 4000 µg/mL, the solubility [32] was > 4000 µg/mL and the dose excreted at 48 h [33] was 87%. The remaining at 24 h [34] was 100%, the half-life [35] was 7 h and the IC50 [36] was > 20 µM. The half-life [37] was 13 h, the IC50 [38] was > 10 µM and the dose excreted at 48 h [39] was 36%.
